Consider 11 molecules from US10538535B2, “Antitumoral compounds” (priority 2017, dated 2020).

The structures appear in SMILES notation.

Common to all, as to experiment: cells
One assay has as its system PSN1 cells. Particulars: for CC50: read-out: LC50; for IC (TGI): read-out: TGI. The text has this:
(§1) The aim of this assay is to evaluate the in vitro cytostatic (ability to delay or arrest tumor cell growth) or cytotoxic (ability to kill tumor cells) activity of the samples being tested.
(§2) A colorimetric assay, using sulforhodamine B (SRB) reaction has been adapted to provide a quantitative measurement of cell growth and viability (following the technique described by Skehan et al. J. Natl. Cancer Inst. 1990, 82, 1107-1112). Another colorimetric assay based on 3-(4,5-Dimethylthiazol-2-yl)-2,5-diphenyltetrazolium bromide (MTT) reduction to a purple formazan has been also used to assess the antiproliferative activity (following the technique described by Mosmann et al. J. Immunol. Meth. 1983, 65, 55-63).
(§3) These forms of assays employ 96-well cell culture microplates following the standards of the American National Standards Institute and the Society for Laboratory Automation and Screening (ANSI SLAS 1-2004 (R2012) Oct. 12, 2011. All the cell lines used in this study were obtained from the American Type Culture Collection (ATCC) and derive from different types of human cancer.
(§4) A549, HT29, MDA-MB-231 and PSN1 cells were maintained in Dulbecco's Modified Eagle Medium (DMEM) while PC-3 and 22Rv1 cells were maintained in Roswell Park Memorial Institute Medium (RPMI). All cell lines were supplemented with 10% Fetal Bovine Serum (FBS), 2 mM L-glutamine, 100 U/mL penicillin, and 100 […] at 37° C., 5% CO2 and 98% humidity. For the experiments, cells were harvested from subconfluent cultures using trypsinization and resuspended in fresh medium before counting and plating.
(§5) A549, HT29, MDA-MB-231 and PSN1 cells were seeded in 96 well microtiter plates, at 5000 cells per well in aliquots of 150 μL, and allowed to attach to the plate surface for 18 hours (overnight) in drug free medium. After that, one control (untreated) plate of each cell line was fixed (as described below) and used for time zero reference value. Culture plates were then treated with test compounds (50 μL aliquots of 4× stock solutions in complete culture medium plus 4% DMSO) using ten 2/5 serial dilutions (concentrations ranging from 10 to 0.003 μg/mL) and triplicate cultures (1% final concentration in DMSO). After 72 hours treatment, the antitumor effect was measured by using the SRB methodology: Briefly, cells were washed twice with PBS, fixed for 15 min in 1% glutaraldehyde solution at room temperature, rinsed twice in PBS, and stained in 0.4% SRB solution for 30 min at room temperature. Cells were then rinsed several times with 1% acetic acid solution and air-dried at room temperature.
(§6) Effects on cell growth and survival were estimated by applying the NCI algorithm (Boyd M R and Paull K D. Drug Dev. Res. 1995, 34, 91-104). The values obtained in triplicate cultures were fitted by nonlinear regression to a four-parameters logistic curve by nonlinear regression analysis.

The test system of the next assay is MDA-MB-231 cells. Particulars: Homo sapiens, MDA-MB-231, 72 h; for CC50: read-out: LC50; for IC (TGI): read-out: TGI.
Source text: as §1, §2, §3, §4, §5, §6

A further assay has as its system A549 cells. Conditions: Homo sapiens, A549, 72 h; for CC50: read-out: LC50; for IC (TGI): read-out: TGI.
Source text: as §1, §2, §3, §4, §5, §6

In the next assay the test system is HT29 cells. Particulars: Homo sapiens, HT-29, 72 h; for CC50: read-out: LC50; for IC (TGI): read-out: TGI.
Source text: as §1, §2, §3, §4, §5, §6

[1] abbreviates: Homo sapiens, PSN1, 72 h, PSN1, 72 hours treatment, SRB.

On to `COc1c(C)cc2c(c1O)[C@@H]1[C@@H]3[C@@H]4SC[C@]5(N[C@H](C(=O)O)Cc6c5[nH]c5ccccc65)C(=O)OC[C@@H](c5c6c(c(C)c(OC(C)=O)c54)OCO6)N3[C@@H](O)[C@H](C2)N1C` [Compound 15-S], for which the GI50 (commonly the concentration at which growth is held to half of that of the control) in the assay on PSN1 cells (Homo sapiens, PSN1, 72 h) was 238 nM; in the assay with MDA-MB-231 cells, 163 nM; in the assay on A549 cells, above 1250 nM; with HT29 cells, 300 nM. Moreover, the CC50 in the assay on PSN1 cells (Homo sapiens, PSN1, 72 h) is 839 nM; with MDA-MB-231 cells it was 275 nM; in the assay on A549 cells, above 1250 nM; in the assay on HT29 cells, 914 nM. Further, the IC (TGI) in the assay on PSN1 cells (Homo sapiens, PSN1, 72 h) is 463 nM; with MDA-MB-231 cells, 213 nM; with A549 cells, above 1250 nM; in the assay with HT29 cells it was 513 nM.
For `COc1ccc2[nH]c3c(c2c1)C[C@H](CO)N[C@]31CS[C@@H]2c3c(OC(C)=O)c(C)c4c(c3[C@H](COC1=O)N1[C@@H]2[C@H]2c3c(cc(C)c(OC)c3O)C[C@@H]([C@@H]1C#N)N2C)OCO4` [Compound 18-R], the GI50 in the assay with PSN1 cells (setting [1]) stood at 0.57 nM; in the assay on PSN1 cells (PSN1, 72 hours treatment, SRB), 0.571 nM. The IC (TGI) is 1.06 nM in the assay on PSN1 cells (Homo sapiens, PSN1, 72 h); 1.34 nM in the assay with MDA-MB-231 cells; 1.34 nM in the assay on A549 cells; 1.34 nM with HT29 cells. In the assay with MDA-MB-231 cells, the CC50 was 1.46 nM.
`COc1ccc2[nH]c3c(c2c1)C[C@@H](CO)N[C@]31CS[C@@H]2c3c(OC(C)=O)c(C)c4c(c3[C@H](COC1=O)N1[C@@H]2[C@H]2c3c(cc(C)c(OC)c3O)C[C@@H]([C@@H]1C#N)N2C)OCO4` [Compound 18-S]: the GI50 worked out at 0.959 nM in the assay with PSN1 cells (setting [1]) and 1.7 nM in the assay on A549 cells. In addition, the IC (TGI) in the assay on PSN1 cells (Homo sapiens, PSN1, 72 h) was 1.34 nM; with MDA-MB-231 cells it was 1.34 nM; with A549 cells, 3.03 nM; with HT29 cells it was 1.34 nM. Moreover, the CC50 with MDA-MB-231 cells came out at 1.58 nM.
For `C=CCOC(=O)NC[C@H]1Cc2c([nH]c3ccc(OC)cc23)[C@@]2(CS[C@@H]3c4c(OC(C)=O)c(C)c5c(c4[C@H](COC2=O)N2[C@@H]3[C@H]3c4c(cc(C)c(OC)c4O)C[C@@H]([C@@H]2C#N)N3C)OCO5)N1` [Compound 25-R], the CC50 is 6.73 nM in the assay on PSN1 cells (Homo sapiens, PSN1, 72 h); 8.38 nM with MDA-MB-231 cells; 9.92 nM in the assay on A549 cells; above 110 nM in the assay on HT29 cells. For the same molecule, the IC (TGI) with PSN1 cells (Homo sapiens, PSN1, 72 h) came to 2.32 nM; with MDA-MB-231 cells it was 2.54 nM; with A549 cells, 2.43 nM; in the assay on HT29 cells, 2.76 nM. The figures for the GI50 with A549 cells and with HT29 cells were 1.32 nM and 1.54 nM, respectively.
`C=CCOC(=O)NC[C@@H]1Cc2c([nH]c3ccc(OC)cc23)[C@@]2(CS[C@@H]3c4c(OC(C)=O)c(C)c5c(c4[C@H](COC2=O)N2[C@@H]3[C@H]3c4c(cc(C)c(OC)c4O)C[C@@H]([C@@H]2C#N)N3C)OCO5)N1` [Compound 25-S]: the GI50 with PSN1 cells (setting [1]) was determined as 6.84 nM; in the assay on MDA-MB-231 cells it was 5.84 nM; in the assay with A549 cells, 7.17 nM; with HT29 cells it was 7.17 nM. Further, the CC50 with PSN1 cells (Homo sapiens, PSN1, 72 h) was 14.3 nM; in the assay on MDA-MB-231 cells it was 15.4 nM; in the assay with A549 cells it was above 110 nM; in the assay on HT29 cells, above 110 nM. Further, the IC (TGI) in the assay with PSN1 cells (Homo sapiens, PSN1, 72 h) is 9.26 nM; in the assay on MDA-MB-231 cells it was 9.04 nM; with A549 cells it was 7.61 nM; in the assay on HT29 cells, 7.72 nM.
As to `COc1ccc2[nH]c3c(c2c1)C[C@H](CN)N[C@]31CS[C@@H]2c3c(OC(C)=O)c(C)c4c(c3[C@H](COC1=O)N1[C@@H]2[C@H]2c3c(cc(C)c(OC)c3O)C[C@@H]([C@@H]1C#N)N2C)OCO4` [Compound 26-R], the 50% growth inhibitory concentration (GI50) in the assay on PSN1 cells (setting [1]) turned out to be 0.972 nM; with MDA-MB-231 cells, 1.17 nM; in the assay with A549 cells, 1.94 nM; in the assay on HT29 cells, 0.729 nM. Besides, the CC50 in the assay with PSN1 cells (Homo sapiens, PSN1, 72 h) is 3.52 nM; in the assay on MDA-MB-231 cells, 1.46 nM; in the assay on A549 cells, above 122 nM; in the assay on HT29 cells it was above 122 nM. For the same molecule, the IC (TGI) amounted to 1.7 nM in the assay with PSN1 cells (Homo sapiens, PSN1, 72 h); 1.22 nM in the assay on MDA-MB-231 cells; 3.4 nM with A549 cells; 1.58 nM with HT29 cells.
`COc1ccc2[nH]c3c(c2c1)C[C@@H](CN)N[C@]31CS[C@@H]2c3c(OC(C)=O)c(C)c4c(c3[C@H](COC1=O)N1[C@@H]2[C@H]2c3c(cc(C)c(OC)c3O)C[C@@H]([C@@H]1C#N)N2C)OCO4` [Compound 26-S]: the GI50 is 3.04 nM with PSN1 cells (setting [1]), 1.34 nM with MDA-MB-231 cells, 11.2 nM with A549 cells and 2.79 nM in the assay with HT29 cells. Besides, the CC50 in the assay on PSN1 cells (Homo sapiens, PSN1, 72 h) was 3.52 nM; in the assay with MDA-MB-231 cells, 3.89 nM; with A549 cells, above 122 nM; with HT29 cells it was above 122 nM. For the same molecule, the IC (TGI) with PSN1 cells (Homo sapiens, PSN1, 72 h) worked out at 3.28 nM; with MDA-MB-231 cells it was 1.94 nM; in the assay with A549 cells, 21.9 nM; in the assay with HT29 cells it was 3.16 nM.
As for `COc1ccc2[nH]c3c(c2c1)C[C@H](CN)N[C@]31CS[C@@H]2c3c(OC(C)=O)c(C)c4c(c3[C@H](COC1=O)N1[C@@H]2[C@H]2c3c(cc(C)c(OC)c3O)C[C@@H]([C@@H]1O)N2C)OCO4` [Compound 27-R], the GI50 with PSN1 cells (setting [1]) was found to be 0.639 nM; in the assay on MDA-MB-231 cells it was 0.307 nM; with A549 cells it was 2.09 nM; in the assay on HT29 cells, 0.504 nM. Further, the CC50 in the assay with PSN1 cells (Homo sapiens, PSN1, 72 h) was 2.46 nM; in the assay with MDA-MB-231 cells, 0.86 nM; with A549 cells, 10.1 nM; with HT29 cells, above 123 nM. Further, the IC (TGI) in the assay on PSN1 cells (Homo sapiens, PSN1, 72 h) was found to be 1.17 nM; in the assay with MDA-MB-231 cells, 0.541 nM; in the assay with A549 cells, 3.93 nM; with HT29 cells, 0.553 nM.
Regarding `COc1ccc2[nH]c3c(c2c1)C[C@@H](CN)N[C@]31CS[C@@H]2c3c(OC(C)=O)c(C)c4c(c3[C@H](COC1=O)N1[C@@H]2[C@H]2c3c(cc(C)c(OC)c3O)C[C@@H]([C@@H]1O)N2C)OCO4` [Compound 27-S], the GI50 was 1.97 nM in the assay with PSN1 cells (setting [1]), 1.19 nM in the assay with MDA-MB-231 cells and 6.02 nM in the assay with A549 cells. Besides, the CC50 with PSN1 cells (Homo sapiens, PSN1, 72 h) was 4.55 nM; in the assay with MDA-MB-231 cells, 1.35 nM; with A549 cells it was above 123 nM; in the assay with HT29 cells, above 123 nM. Moreover, the IC (TGI) was 2.83 nM in the assay on PSN1 cells (Homo sapiens, PSN1, 72 h); 11.2 nM with A549 cells; 1.35 nM in the assay on HT29 cells.
As for `COc1ccc2[nH]c3c(c2c1)C[C@H](C(=O)O)N[C@]31CS[C@@H]2c3c(OC(C)=O)c(C)c4c(c3[C@H](COC1=O)N1[C@@H]2[C@H]2c3c(cc(C)c(OC)c3O)C[C@@H]([C@@H]1C#N)N2C)OCO4` [Compound 28-R], the GI50 came to 21.5 nM with PSN1 cells (Homo sapiens, PSN1, 72 h); 19.1 nM with MDA-MB-231 cells; 167 nM in the assay on A549 cells; 31 nM in the assay on HT29 cells. Moreover, the CC50 in the assay on PSN1 cells (Homo sapiens, PSN1, 72 h) is 66.8 nM; in the assay on MDA-MB-231 cells it was 91.9 nM; with A549 cells, above 1190 nM; in the assay with HT29 cells, above 1190 nM. Further, the IC (TGI) with PSN1 cells (Homo sapiens, PSN1, 72 h) was 35.8 nM; in the assay on MDA-MB-231 cells it was 32.2 nM; with A549 cells it was 358 nM; with HT29 cells, 33.4 nM.
Turning to `COc1ccc2[nH]c3c(c2c1)C[C@@H](C(=O)O)N[C@]31CS[C@@H]2c3c(OC(C)=O)c(C)c4c(c3[C@H](COC1=O)N1[C@@H]2[C@H]2c3c(cc(C)c(OC)c3O)C[C@@H]([C@@H]1C#N)N2C)OCO4` [Compound 28-S], the GI50 in the assay on PSN1 cells (Homo sapiens, PSN1, 72 h) worked out at 251 nM; in the assay on MDA-MB-231 cells, 167 nM; in the assay on A549 cells, 489 nM; in the assay on HT29 cells, 251 nM. The CC50 in the assay on PSN1 cells (Homo sapiens, PSN1, 72 h) was 692 nM; in the assay on MDA-MB-231 cells, 394 nM; with A549 cells, above 1190 nM; in the assay on HT29 cells, 633 nM. For the same molecule, the IC (TGI) in the assay with PSN1 cells (Homo sapiens, PSN1, 72 h) was 394 nM; in the assay with MDA-MB-231 cells it was 251 nM; in the assay with A549 cells it was above 1190 nM; in the assay on HT29 cells it was 346 nM.
